One assay has as its system cyclin D1. The assay can be described thus: Cyclin D1 percentage degradation in Calu-1 cells (immunoblotting). Type of assay: cell-based. The conditions noted are these: 200 nM, 16 hours. Put shortly:
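Cells were rinsed once in cold PBS and lysed in cold RIPA buffer containing protease and phosphatase inhibitors, with gentle agitation at 4° C. for 30 min. Lysates were spun at 13,000 rpm for 10 min at 4° C., protein was measured by BCA, and samples were boiled in Laemmli buffer at 99° C. for 5 min before SDS-PAGE immunoblotting.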

Another assay concerns the target T1, CDK4 (Homo sapiens, UniProt P11802).
T1 construct: endogenous in cells; host or cells: Calu-1
Description: CDK4 percentage degradation in Calu-1 cells (immunoblotting). Format: cell-based. The conditions noted are these: read-out: CDK4 Degradation (200 nM). Summed up: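 Cultured cells were rinsed once in cold PBS and lysed in cold RIPA buffer containing protease and phosphatase inhibitors, with gentle agitation at 4° C. for 30 min. Lysates were centrifuged at 13,000 rpm for 10 min at 4° C., and protein was quantified by BCA. Samples were then separated by SDS-PAGE, detected with ECL, and the CDK4 bands quantified in Image Lab.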

Molecules are shown by their SMILES. Like-named read-outs stand apart in the source and are kept apart here.

We go through 15 molecules from patent publication US20250235543A1, “MODIFIED PROTEINS AND PROTEIN DEGRADERS” (Cullgen (Shanghai), Inc., priority 2021, published 2025).

T1 sequence (P11802 2-303 limits assumed): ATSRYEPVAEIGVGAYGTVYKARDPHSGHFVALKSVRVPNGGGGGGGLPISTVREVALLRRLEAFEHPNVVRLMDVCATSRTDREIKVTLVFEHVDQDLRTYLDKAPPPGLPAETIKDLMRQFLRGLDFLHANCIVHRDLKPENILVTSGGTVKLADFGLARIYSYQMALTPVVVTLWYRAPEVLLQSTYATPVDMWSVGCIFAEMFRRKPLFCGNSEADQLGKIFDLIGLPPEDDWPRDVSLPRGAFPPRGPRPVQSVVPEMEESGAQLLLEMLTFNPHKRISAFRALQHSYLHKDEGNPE
T1 sequence (P24385 whole entry partner): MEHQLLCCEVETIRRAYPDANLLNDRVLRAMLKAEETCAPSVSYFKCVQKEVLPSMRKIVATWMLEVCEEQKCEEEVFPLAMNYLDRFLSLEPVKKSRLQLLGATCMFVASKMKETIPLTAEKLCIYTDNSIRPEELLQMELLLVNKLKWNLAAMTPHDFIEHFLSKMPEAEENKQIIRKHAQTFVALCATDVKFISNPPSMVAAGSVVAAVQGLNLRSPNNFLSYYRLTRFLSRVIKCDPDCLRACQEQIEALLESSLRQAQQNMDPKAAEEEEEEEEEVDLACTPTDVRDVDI
T1 sequence (Q16531 2-1140 limits assumed, further chain): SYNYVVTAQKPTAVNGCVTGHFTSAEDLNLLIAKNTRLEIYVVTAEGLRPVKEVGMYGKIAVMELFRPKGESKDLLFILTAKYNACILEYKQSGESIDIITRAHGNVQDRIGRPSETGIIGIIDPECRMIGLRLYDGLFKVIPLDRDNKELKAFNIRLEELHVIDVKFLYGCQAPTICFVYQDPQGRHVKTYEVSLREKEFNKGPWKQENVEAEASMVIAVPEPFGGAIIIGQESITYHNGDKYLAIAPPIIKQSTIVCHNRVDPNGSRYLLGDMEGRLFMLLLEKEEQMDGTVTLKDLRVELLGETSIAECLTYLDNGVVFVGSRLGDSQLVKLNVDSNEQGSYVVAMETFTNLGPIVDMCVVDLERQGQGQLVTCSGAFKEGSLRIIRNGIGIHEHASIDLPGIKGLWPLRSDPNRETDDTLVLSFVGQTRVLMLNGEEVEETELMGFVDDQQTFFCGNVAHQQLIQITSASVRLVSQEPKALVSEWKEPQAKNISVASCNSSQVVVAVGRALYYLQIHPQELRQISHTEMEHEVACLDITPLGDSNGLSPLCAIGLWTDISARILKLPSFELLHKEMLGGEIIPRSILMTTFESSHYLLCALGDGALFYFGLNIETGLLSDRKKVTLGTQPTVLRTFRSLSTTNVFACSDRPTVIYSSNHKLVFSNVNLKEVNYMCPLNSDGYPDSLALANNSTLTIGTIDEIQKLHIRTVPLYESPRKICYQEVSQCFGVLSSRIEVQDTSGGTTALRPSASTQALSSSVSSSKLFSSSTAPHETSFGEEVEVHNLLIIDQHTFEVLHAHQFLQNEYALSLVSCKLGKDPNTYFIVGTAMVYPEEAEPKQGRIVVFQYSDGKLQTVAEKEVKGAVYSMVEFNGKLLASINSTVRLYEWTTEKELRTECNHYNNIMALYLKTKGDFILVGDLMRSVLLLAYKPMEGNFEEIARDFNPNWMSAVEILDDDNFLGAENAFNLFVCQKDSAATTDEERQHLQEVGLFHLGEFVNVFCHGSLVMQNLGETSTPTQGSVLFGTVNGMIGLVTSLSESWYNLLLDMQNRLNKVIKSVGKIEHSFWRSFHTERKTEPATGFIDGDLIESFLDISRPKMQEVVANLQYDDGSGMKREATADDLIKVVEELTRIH

With `CC(=O)c1c(C)c2cnc(Nc3ccc(N4CCN(CC(=O)NCCCNc5cccc(C(=O)Nc6nc(C)c(C)s6)c5C)CC4)cn3)nc2n(C2CCCC2)c1=O` [CPD-098, 3-((3-(2-(4-(6-((6-Acetyl-8-cyclopentyl-5-methyl-7-oxo-7,8-dihydropyrido[2,3-d]pyrimidin-2-yl)amino)pyridin-3-yl)piperazin-1-yl)acetamido)propyl)amino)-N-(4,5-dimethylthiazol-2-yl)-2-methylbenzamide], in the assay on cyclin D1, the “CyclinD1 Degradation (200 nM)” value is reported as “D (protein percentage degradation <30%)”. At CDK4 (Calu-1 cells, 200 nM, 16 hours), the inhibition at 0.2 µM was less than 30%.
Consider `CC(=O)c1c(C)c2cnc(Nc3ccc(N4CCN(CC(=O)NCCCCNc5cccc(C(=O)Nc6nc(C)c(C)s6)c5C)CC4)cn3)nc2n(C2CCCC2)c1=O` [CPD-099, 3-((4-(2-(4-(6-((6-Acetyl-8-cyclopentyl-5-methyl-7-oxo-7,8-dihydropyrido[2,3-d]pyrimidin-2-yl)amino)pyridin-3-yl)piperazin-1-yl)acetamido)butyl)amino)-N-(4,5-dimethylthiazol-2-yl)-2-methylbenzamide], for which the “CyclinD1 Degradation (200 nM)” value in the assay with cyclin D1 is “D (protein percentage degradation <30%)”. Also, the inhibition at 0.2 µM at CDK4 (Calu-1 cells, 200 nM, 16 hours) was less than 30%.
In the same order, the values of `CC(=O)c1c(C)c2cnc(Nc3ccc(N4CCN(CC(=O)NCCCCCNc5cccc(C(=O)Nc6nc(C)c(C)s6)c5C)CC4)cn3)nc2n(C2CCCC2)c1=O` [CPD-100, 3-((5-(2-(4-(6-((6-Acetyl-8-cyclopentyl-5-methyl-7-oxo-7,8-dihydropyrido[2,3-d]pyrimidin-2-yl)amino)pyridin-3-yl)piperazin-1-yl)acetamido)pentyl)amino)-N-(4,5-dimethylthiazol-2-yl)-2-methylbenzamide] are “D (protein percentage degradation <30%)” and less than 30%.
The like results for `CC(=O)c1c(C)c2cnc(Nc3ccc(N4CCN(CC(=O)NCCCCCCNc5cccc(C(=O)Nc6nc(C)c(C)s6)c5C)CC4)cn3)nc2n(C2CCCC2)c1=O` [CPD-101, 3-((6-(2-(4-(6-((6-Acetyl-8-cyclopentyl-5-methyl-7-oxo-7,8-dihydropyrido[2,3-d]pyrimidin-2-yl)amino)pyridin-3-yl)piperazin-1-yl)acetamido)hexyl)amino)-N-(4,5-dimethylthiazol-2-yl)-2-methylbenzamide] were, in that order, “A (protein percentage degradation >=80%)” and 50 to 80%.
On to `CC(=O)c1c(C)c2cnc(Nc3ccc(N4CCN(CC(=O)NCCCCCCCNc5cccc(C(=O)Nc6nc(C)c(C)s6)c5C)CC4)cn3)nc2n(C2CCCC2)c1=O` [CPD-102, 3-((7-(2-(4-(6-((6-Acetyl-8-cyclopentyl-5-methyl-7-oxo-7,8-dihydropyrido[2,3-d]pyrimidin-2-yl)amino)pyridin-3-yl)piperazin-1-yl)acetamido)heptyl)amino)-N-(4,5-dimethylthiazol-2-yl)-2-methylbenzamide], for which the “CyclinD1 Degradation (200 nM)” value with cyclin D1 is reported as “A (protein percentage degradation >=80%)”. Further, at CDK4 (Calu-1 cells, 200 nM, 16 hours), the inhibition at 0.2 µM was 50 to 80%.
Turning to `CC(=O)c1c(C)c2cnc(Nc3ccc(N4CCN(CC(=O)NCCOCCNc5cccc(C(=O)Nc6nc(C)c(C)s6)c5C)CC4)cn3)nc2n(C2CCCC2)c1=O` [CPD-103, 3-((2-(2-(2-(4-(6-((6-Acetyl-8-cyclopentyl-5-methyl-7-oxo-7,8-dihydropyrido[2,3-d]pyrimidin-2-yl)amino)pyridin-3-yl)piperazin-1-yl)acetamido)ethoxy)ethyl)amino)-N-(4,5-dimethylthiazol-2-yl)-2-methylbenzamide], the “CyclinD1 Degradation (200 nM)” value in the assay on cyclin D1 is reported as “D (protein percentage degradation <30%)”. Moreover, at CDK4 (Calu-1 cells, 200 nM, 16 hours), the inhibition at 0.2 µM is less than 30%.
On to `CC(=O)c1c(C)c2cnc(Nc3ccc(N4CCN(CC(=O)NCCOCCOCCNc5cccc(C(=O)Nc6nc(C)c(C)s6)c5C)CC4)cn3)nc2n(C2CCCC2)c1=O` [CPD-104, 3-((2-(2-(2-(2-(4-(6-((6-Acetyl-8-cyclopentyl-5-methyl-7-oxo-7,8-dihydropyrido[2,3-d]pyrimidin-2-yl)amino)pyridin-3-yl)piperazin-1-yl)acetamido)ethoxy)ethoxy)ethyl)amino)-N-(4,5-dimethylthiazol-2-yl)-2-methylbenzamide], for which, in the assay on cyclin D1, the “CyclinD1 Degradation (200 nM)” value was “A (protein percentage degradation >=80%)”. Moreover, the inhibition at 0.2 µM on CDK4 (Calu-1 cells, 200 nM, 16 hours) lay in the range of 30 to 50%.
For the molecule `CC(=O)c1c(C)c2cnc(Nc3ccc(N4CCN(CC(=O)NCCOCCOCCOCCNc5cccc(C(=O)Nc6nc(C)c(C)s6)c5C)CC4)cn3)nc2n(C2CCCC2)c1=O` [CPD-105, 3-((1-(4-(6-((6-Acetyl-8-cyclopentyl-5-methyl-7-oxo-7,8-dihydropyrido[2,3-d]pyrimidin-2-yl)amino)pyridin-3-yl)piperazin-1-yl)-2-oxo-6,9,12-trioxa-3-azatetradecan-14-yl)amino)-N-(4,5-dimethylthiazol-2-yl)-2-methylbenzamide], the “CyclinD1 Degradation (200 nM)” value in the assay on cyclin D1 was “A (protein percentage degradation >=80%)”. Besides, the inhibition at 0.2 µM on CDK4 (Calu-1 cells, 200 nM, 16 hours) lay within 50 to 80%.
On to `CC(=O)c1c(C)c2cnc(Nc3ccc(N4CCN(CC(=O)NCCOCCOCCOCCOCCNc5cccc(C(=O)Nc6nc(C)c(C)s6)c5C)CC4)cn3)nc2n(C2CCCC2)c1=O` [CPD-106, 3-((1-(4-(6-((6-Acetyl-8-cyclopentyl-5-methyl-7-oxo-7,8-dihydropyrido[2,3-d]pyrimidin-2-yl)amino)pyridin-3-yl)piperazin-1-yl)-2-oxo-6,9,12,15-tetraoxa-3-azaheptadecan-17-yl)amino)-N-(4,5-dimethylthiazol-2-yl)-2-methylbenzamide], for which, in the assay on cyclin D1, the “CyclinD1 Degradation (200 nM)” value is reported as “A (protein percentage degradation >=80%)”. Besides, the inhibition at 0.2 µM on CDK4 (Calu-1 cells, 200 nM, 16 hours) lay within 50 to 80%.
In the same order, the values of `CC(=O)c1c(C)c2cnc(Nc3ccc(N4CCN(CC(=O)NCCOCCOCCOCCOCCOCCNc5cccc(C(=O)Nc6nc(C)c(C)s6)c5C)CC4)cn3)nc2n(C2CCCC2)c1=O` [CPD-107, 3-((1-(4-(6-((6-Acetyl-8-cyclopentyl-5-methyl-7-oxo-7,8-dihydropyrido[2,3-d]pyrimidin-2-yl)amino)pyridin-3-yl)piperazin-1-yl)-2-oxo-6,9,12,15,18-pentaoxa-3-azaicosan-20-yl)amino)-N-(4,5-dimethylthiazol-2-yl)-2-methylbenzamide] are “A (protein percentage degradation >=80%)” and greater than 80%.
Consider `CC(=O)c1c(C)c2cnc(Nc3ccc(N4CCN(C(=O)CCCCNc5ccc(C)c(C(=O)Nc6nc(C)c(C)s6)c5)CC4)cn3)nc2n(C2CCCC2)c1=O` [CPD-108, 5-((5-(4-(6-((6-Acetyl-8-cyclopentyl-5-methyl-7-oxo-7,8-dihydropyrido[2,3-d]pyrimidin-2-yl)amino)pyridin-3-yl)piperazin-1-yl)-5-oxopentyl)amino)-N-(4,5-dimethylthiazol-2-yl)-2-methylbenzamide], for which the “CyclinD1 Degradation (200 nM)” value in the assay on cyclin D1 was “D (protein percentage degradation <30%)”. Further, on CDK4 (Calu-1, 16 h), the inhibition at 0.2 µM is less than 30%.
Regarding `CC(=O)c1c(C)c2cnc(Nc3ccc(N4CCN(C(=O)CCCCCCNc5ccc(C)c(C(=O)Nc6nc(C)c(C)s6)c5)CC4)cn3)nc2n(C2CCCC2)c1=O` [CPD-109, 5-((7-(4-(6-((6-Acetyl-8-cyclopentyl-5-methyl-7-oxo-7,8-dihydropyrido[2,3-d]pyrimidin-2-yl)amino)pyridin-3-yl)piperazin-1-yl)-7-oxoheptyl)amino)-N-(4,5-dimethylthiazol-2-yl)-2-methylbenzamide], the “CyclinD1 Degradation (200 nM)” value in the assay with cyclin D1 was “D (protein percentage degradation <30%)”. Besides, the inhibition at 0.2 µM at CDK4 (Calu-1 cells, 200 nM, 16 hours) is less than 30%.
For `CC(=O)c1c(C)c2cnc(Nc3ccc(N4CCN(C(=O)CCOCCNc5ccc(C)c(C(=O)Nc6nc(C)c(C)s6)c5)CC4)cn3)nc2n(C2CCCC2)c1=O` [CPD-110, 5-((2-(3-(4-(6-((6-Acetyl-8-cyclopentyl-5-methyl-7-oxo-7,8-dihydropyrido[2,3-d]pyrimidin-2-yl)amino)pyridin-3-yl)piperazin-1-yl)-3-oxopropoxy)ethyl)amino)-N-(4,5-dimethylthiazol-2-yl)-2-methylbenzamide], the “CyclinD1 Degradation (200 nM)” value in the assay on cyclin D1 is on record as “D (protein percentage degradation <30%)”. Also, the inhibition at 0.2 µM on CDK4 (Calu-1, 16 h) was less than 30%.
For `CC(=O)c1c(C)c2cnc(Nc3ccc(N4CCN(C(=O)CCOCCOCCOCCNc5ccc(C)c(C(=O)Nc6nc(C)c(C)s6)c5)CC4)cn3)nc2n(C2CCCC2)c1=O` [CPD-111, 5-((2-(2-(2-(3-(4-(6-((6-Acetyl-8-cyclopentyl-5-methyl-7-oxo-7,8-dihydropyrido[2,3-d]pyrimidin-2-yl)amino)pyridin-3-yl)piperazin-1-yl)-3-oxopropoxy)ethoxy)ethoxy)ethyl)amino)-N-(4,5-dimethylthiazol-2-yl)-2-methylbenzamide], the “CyclinD1 Degradation (200 nM)” value with cyclin D1 was “D (protein percentage degradation <30%)”. In addition, the inhibition at 0.2 µM on CDK4 (Calu-1, 16 h) is less than 30%.
`CC(=O)c1c(C)c2cnc(Nc3ccc(N4CCN(C(=O)CCNc5cccc(C(=O)Nc6nc(C)c(C)s6)c5C)CC4)cn3)nc2n(C2CCCC2)c1=O` [CPD-112, 3-((3-(4-(6-((6-Acetyl-8-cyclopentyl-5-methyl-7-oxo-7,8-dihydropyrido[2,3-d]pyrimidin-2-yl)amino)pyridin-3-yl)piperazin-1-yl)-3-oxopropyl)amino)-N-(4,5-dimethylthiazol-2-yl)-2-methylbenzamide]: in the assay on cyclin D1, the “CyclinD1 Degradation (200 nM)” value is “D (protein percentage degradation <30%)”. For the same molecule, on CDK4 (Calu-1, 16 h), the inhibition at 0.2 µM was less than 30%.
